Counter-ions that a name gives are not always drawn.

The term % Inhibition denotes how much of the control response was suppressed. A lower % Inhibition goes with a response near the control. For orientation: IC50 means the concentration at which inhibition is half-maximal. A lower IC50 goes with greater potency in that assay.

This experiment deals with PAI-1 (Homo sapiens, UniProt P05121). The experiment in a line: biochemical. The class given is biochemical. The following applies: for IC50: PAI chromogenic substrate assay. As to the method: The present compounds have been tested in a PAI functional assay. In this assay, a compound is incubated with PAI-1 prior to addition to the tPA assay system. Inhibition of PAI-1 results in the production of plasmin from plasminogen. In turn, plasmin cleaves the chromogenic substrate S2251 (Kabi Vitrum) producing pNA (p-nitroaniline) which is detected spectrophotometrically at 405 nm (K. Nilsson et al, Fibrinolysis (1987) 1, 163-168).
The present compounds were tested in a PAI chromogenic substrate assay. In the assay (K. Nilsson, Fibrinolysis (1987) 1, 163-168) each compound was incubated with PAI-1 prior to addition to the tPA assay system. […] In turn, the plasmin cleaved the chromogenic substrate S2251 (Kabi-Vitrum) producing pNA (p-nitroaniline) which was detected spectrophotometrically at 405 nm.
The degrees of inhibition observed in the chromogenic substrate assay at various concentrations, or the IC50 values, for each compound are presented in Table 1.

Sequence of PAI-1 (P05121 24-402): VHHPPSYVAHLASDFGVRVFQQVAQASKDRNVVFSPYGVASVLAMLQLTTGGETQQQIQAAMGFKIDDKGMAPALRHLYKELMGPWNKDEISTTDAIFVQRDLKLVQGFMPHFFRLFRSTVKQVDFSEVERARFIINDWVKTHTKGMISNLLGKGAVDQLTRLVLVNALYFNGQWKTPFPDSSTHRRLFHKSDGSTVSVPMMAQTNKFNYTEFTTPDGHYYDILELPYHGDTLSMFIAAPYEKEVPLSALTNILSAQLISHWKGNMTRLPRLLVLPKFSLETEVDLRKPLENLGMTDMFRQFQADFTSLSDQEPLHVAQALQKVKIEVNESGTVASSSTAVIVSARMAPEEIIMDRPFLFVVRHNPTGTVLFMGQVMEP

`COc1ccc2ccccc2c1/C=c1\[nH]c(=O)/c(=C/c2ccc(SCCN(C)C)s2)[nH]c1=O` [Compound 5499.HCl, (3Z,6Z)-3-(5-(2-Dimethylaminoethylthio)-2-thienyl)methylene-6-(2-methoxy-1-naphthyl)methylene-2,5-piperazinedione] came in with a 50% inhibitory concentration (IC50) of 18.4 µM. Further, the “% Inhibition” value (5 μm) is on record as 0%. Also, the “% Inhibition” value (20 μm) is reported as 54%.
`COC(=O)c1ccc(/C=c2\[nH]c(=O)/c(=C/c3ccc(SCCN(C)C)cc3)[nH]c2=O)cc1` [Compound 5478.HCl, (3Z,6Z)-3-(4-(2-Dimethylaminoethylthio)benzylidene)-6-(4-methoxycarbonylbenzylidene)-2,5-piperazinedione] registered an IC50 of 16.9 µM. For the same compound, where the note is “5 μm”, the “% Inhibition” value was 3%. Also, the “% Inhibition” value (20 μm) was 60%.
Turning to `CN(C)CCSc1ccc(/C=c2\[nH]c(=O)/c(=C/c3ccc(C(C)(C)C)cc3)[nH]c2=O)cc1` [Compound 5440, (3Z,6Z)-3-(4-(2-Dimethylaminoethylthio)benzylidene)-6-(4-tert-butylbenzylidene)-2,5-piperazinedione], the “% Inhibition” value stood at 11% (5 μm) and 30% (20 μm).
Compound `CSc1ccc(/C=c2\[nH]c(=O)/c(=C/c3ccc(SCCN(C)C)cc3)[nH]c2=O)cc1` [Compound 5426, (3Z,6Z)-3-(4-(2-Dimethylaminoethylthio)benzylidene)-6-(4-methylthiobenzyidene)-2,5-piperazinedione] had an IC50 of 5.7 µM. Besides, the “% Inhibition” value (5 μm) is 25%. Moreover, where the note is “20 μm”, the “% Inhibition” value is 52%.
The compound `CN(C)CCSc1ccc(/C=c2\[nH]c(=O)/c(=C/c3ccccc3)[nH]c2=O)cc1` [Compound 5128.HCl, (3Z,6Z)-6-Benzylidene-3-(4-(2-dimethylaminoethylthio)benzylidene)-2,5-piperazinedione] came in with an IC50 of 10 µM. Also, the “% Inhibition” value (5 μm) is on record as 5%. Also, the “% Inhibition” value (20 μm) came to 71%. The “% Inhibition” value (100 μm) turned out to be 69%.
In turn, `CN(C)CCSc1ccc(/C=c2\[nH]c(=O)/c(=C/c3ccc(C(F)(F)F)cc3)[nH]c2=O)cc1` [Compound 5294.HCl, (3Z,6Z)-3-(4-(2-Dimethylaminoethylthio)benzylidene)-6-(4-trifluoromethylbenzylidene)-2,5-piperazinedione] gave an IC50 of 10 µM.
Turning to `CN(C)CCSc1ccc(/C=c2\[nH]c(=O)/c(=C/c3ccccn3)[nH]c2=O)s1` [Compound 5471.HCl, (3Z,6Z)-6-(5-(2-Dimethylaminoethylthio)-2-thienyl)methylene-3-(2-pyridylmethylene)-2,5-piperazinedione], the “% Inhibition” value reads like this: (5 μm) 1%; (20 μm) 2%.
The compound `COc1ccc(/C=c2\[nH]c(=O)/c(=C/c3ccc(SCCN(C)C)cc3)[nH]c2=O)cc1` [Compound 5479.HCl, (3Z,6Z)-3-(4-(2-Dimethylaminoethylthio)benzylidene)-6-(4-methoxybenzylidene)-2,5-piperazinedione] gave an IC50 of 4.8 µM. Further, where the note is “5 μm”, the “% Inhibition” value is listed as 62%. Besides, the “% Inhibition” value (20 μm) turned out to be 75%.
Consider `CN(C)CC[S+]([O-])c1ccc(/C=c2\[nH]c(=O)/c(=C/c3ccccc3)[nH]c2=O)cc1` (centres unmarked) [Compound 5141.HCl, (3Z,6Z)-6-Benzylidene-3-(4-(2-dimethylaminoethylsulphinyl)benzylidene)-2,5-piperazinedione], for which the “% Inhibition” value is on record as 0% (5 μm), 6% (20 μm) and 34% (100 μm).
In turn, `CN(C)CCSc1ccc(/C=c2\[nH]c(=O)/c(=C/c3ccc(Cl)c(Cl)c3)[nH]c2=O)cc1` [Compound 5465, (3Z,6Z)-3-(3,4-Dichlorobenzylidene)-6-(4-(2-dimethylaminoethylthio)benzylidene)-2,5-piperazinedione] came in with an IC50 of 3.6 µM. For the same compound, the “% Inhibition” value (5 μm) stood at 32%. Further, the “% Inhibition” value (20 μm) amounted to 73%.
As for `CN(C)CCSc1ccc(/C=c2\[nH]c(=O)/c(=C/c3ccc4ccccc4c3)[nH]c2=O)s1` [Compound 5286.HCl, (3Z,6Z)-3-(5-(2-Dimethylaminoethylthio)-2-thienyl)methylene-6-(2-naphthyl)methylene-2,5-piperazinedione], the IC50 was determined as 14 µM. Further, the “% Inhibition” value (20 μm) is 77%. Besides, where the note is “100 μm”, the “% Inhibition” value worked out at 98%.
As to `CN(C)CCSc1ccc(/C=c2\[nH]c(=O)/c(=C/c3cccc([N+](=O)[O-])c3)[nH]c2=O)s1` [Compound 5316, (3Z,6Z)-3-(5-(2-Dimethylaminoethylthio)-2-thienyl)methylene-6-(3-nitrobenzylidene)-2,5-piperazinedione], the “% Inhibition” value (20 μm) was found to be 10%.
`CN(C)CCSc1ccc(/C=c2\[nH]c(=O)/c(=C/c3ccc(Br)cc3)[nH]c2=O)s1` [Compound 5489, (3Z,6Z)-6-(4-Bromobenzylidene)-3-(5-(2-dimethylaminoethylthio)-2-thienyl)methylene-2,5-piperazinedione] came in with a half-inhibitory concentration (IC50) of 13.6 µM. For the same compound, the “% Inhibition” value (5 μm) was 6%. Moreover, the “% Inhibition” value (20 μm) is listed as 56%.
With `CN(C)CCSc1ccc(/C=c2\[nH]c(=O)/c(=C/c3ccc(Cl)cc3)[nH]c2=O)cc1` [Compound 5437.HCl, (3Z,6Z)-3-(4-Chlorobenzylidene)-6-(4-(2-dimethylaminoethylthio)benzylidene)-2,5-piperazinedione], the IC50 worked out at 16.5 µM. For the same compound, the “% Inhibition” value (5 μm) was 18%. The “% Inhibition” value (20 μm) is on record as 44%.
With `CSc1ccc(/C=c2\[nH]c(=O)/c(=C/c3ccc(SCCN(C)C)cc3)[nH]c2=O)cc1` [Compound 5426.HCl, (3Z,6Z)-3-(4-(2-Dimethylaminoethylthio)benzylidene)-6-(4-methylthiobenzyidene)-2,5-piperazinedione], the IC50 came out at 5.4 µM. In addition, the “% Inhibition” value (5 μm) is 35%. The “% Inhibition” value (20 μm) was determined as 55%.
Compound `CN(C)CCSc1ccc(/C=c2\[nH]c(=O)/c(=C/c3cccc(OCc4ccccc4)c3)[nH]c2=O)s1` [Compound 5487, (3Z,6Z)-6-(3-Benzyloxybenzylidene)-3-(5-(2-dimethylaminoethylthio)-2-thienyl)methylene-2,5-piperazinedione] registered an IC50 of 8.6 µM. For the setting “5 μm”, the “% Inhibition” value is given as 15%. In addition, under “20 μm”, the “% Inhibition” value is given as 60%.
In turn, `CN(C)CCSc1ccc(/C=c2\[nH]c(=O)/c(=C/c3cccc(Br)c3)[nH]c2=O)cc1` [Compound 5425, (3Z,6Z)-3-(3-Bromobenzylidene)-6-(4-(2-dimethylaminoethylthio)benzylidene)-2,5-piperazinedione] showed an IC50 of 3.7 µM. Also, the “% Inhibition” value (5 μm) is 37%. Also, the “% Inhibition” value (20 μm) was found to be 57%.
Compound `CN(C)CCSc1ccc(/C=c2\[nH]c(=O)/c(=C/C3CCCCC3)[nH]c2=O)s1` [Compound 5454, (3Z,6Z)-6-Cyclohexylmethylene-3-(5-(2-dimethylaminoethylthio)-2-thienyl)methylene-2,5-piperazinedione] gave a 50% inhibitory concentration (IC50) of 5.5 µM. Also, the “% Inhibition” value (5 μm) is recorded as 47%. For the same compound, the “% Inhibition” value (20 μm) worked out at 75%.
As to `CN(C)CCSc1ccc(/C=c2\[nH]c(=O)/c(=C/c3ccc4ccccc4n3)[nH]c2=O)s1` [Compound 5308, (3Z,6Z)-6-(5-(2-Dimethylaminoethylthio)-2-thienyl)methylene-3-(2-quinolylmethylene)-2,5-piperazinedione], the IC50 came to 4.7 µM. The “% Inhibition” value (20 μm) is 81%. In addition, where the note is “100 μm”, the “% Inhibition” value is 80%.
Regarding `CN(C)CCSc1ccc(/C=c2\[nH]c(=O)/c(=C/c3ccc(N(C)C)cc3)[nH]c2=O)s1` [Compound 5280, (3Z,6Z)-6-(4-Dimethylaminobenzylidene)-3-(5-(2-dimethylaminoethylthio)-2-thienyl)methylene-2,5-piperazinedione], the concentration for half-maximal inhibition (IC50) is 20 µM. For the same compound, for the setting “20 μm”, the “% Inhibition” value is on record as 82%. For the same compound, the “% Inhibition” value (100 μm) amounted to 99%.
For the compound `CN(C)CCSc1ccc(/C=c2\[nH]c(=O)/c(=C/c3cn(C)c4ccccc34)[nH]c2=O)s1` [Compound 5473, (3Z,6Z)-6-(5-(2-Dimethylaminoethylthio)-2-thienyl)methylene-3-(1-methyl-3-indolyl)methylene-2,5-piperazinedione], the half-maximal inhibitory concentration (IC50) was 13.8 µM. Further, the “% Inhibition” value (5 μm) came out at 25%. In addition, the “% Inhibition” value (20 μm) stood at 61%.
Consider `COc1cccc(/C=c2\[nH]c(=O)/c(=C/c3ccc(SCCN(C)C)cc3)[nH]c2=O)c1` [Compound 5438.HCl, (3Z,6Z)-6-(4-(2-Dimethylaminoethylthio)benzylidene)-3-(3-methoxybenzylidene)-2,5-piperazinedione], for which the “% Inhibition” value (5 μm) stood at 3%.
In the case of `CN(C)CCSc1ccc(/C=c2\[nH]c(=O)/c(=C/c3c4ccccc4cc4ccccc34)[nH]c2=O)s1` [Compound 5498.HCl, (3Z,6Z)-6-(9-Anthrylmethylene)-3-(5-(2-dimethylaminoethylthio)-2-thienyl)methylene-2,5-piperazinedione], it took 11.5 µM to reach half-maximal inhibition (IC50). The “% Inhibition” value (5 μm) worked out at 19%. Also, the “% Inhibition” value (20 μm) is recorded as 71%.
Take `CC(=O)Nc1ccc(/C=c2\[nH]c(=O)/c(=C/c3ccc(SCCN(C)C)s3)[nH]c2=O)cc1` [Compound 5300, (3Z,6Z)-6-(4-Acetamidobenzylidene)-3-(5-(2-dimethylaminoethylthio)-2-thienyl)methylene-2,5-piperazinedione]: half-maximal inhibition (IC50) required 25 µM. The “% Inhibition” value (20 μm) is reported as 64%. Besides, the “% Inhibition” value (100 μm) is 70%.

Values taken from patent US5750530A, “Pharmaceutical diketopiperazine compounds” (Xenova Limited, priority 1994, dated 1998).
